These results are taken from patent US20220370502A1, “Active Ingredient of an Erythrocytes-containing Composition” (priority 2020, published 2022).

Holding throughout (format): cell-based
For data set [1], the system named is human erythrocytes. Nature of the data set: Annexin-V-FLUOS binding (eryptosis) by flow cytometry. On the procedure:
(§1) Single treatment: Erythrocytes were treated with costunolide or chelerythrine for 24 hours (see FIGS. 2, 4, 5 and 6). Double treatments: Erythrocytes were first pre-treated with chelerythrine for two hours, followed by treatment with costunolide for further 24 hours (see FIGS. 3 and 7). Thus, the incubation time for chelerythrine-treated erythrocytes lasted 26 h and 24 h for costunolide-treated erythrocytes. In single (0.2% v/v DMSO) and double treatments (0.4% v/v DMSO), DMSO-treated cells served as negative controls. […]
(§2) At the end of the incubation period, 0.1 ml erythrocytes (3×10^6) were added in 500 μl annexin wash buffer, mixed thoroughly and pelleted by centrifuging. […] After an incubation period of 20 minutes in the dark at room temperature, 200 μl annexin binding buffer was added to each sample, thoroughly vortexed to obtain single cell suspensions, and analyzed by flow cytometry on a FACS Calibur (Becton Dickinson, Heidelberg, Germany). In the FL1-channel, binding of annexin-V-FLUOS (eryptosis) was measured. Erythrocyte volume was determined by forward scatter (FSC). To this end, corresponding erythrocytes suspensions were immediately analysed by flow cytometry.
For orientation: In flow cytometry, cells or beads pass a laser one at a time.

Data set [2] concerns human erythrocytes. Nature of the data set: Erythrocyte volume by forward scatter (cell shrinkage). The settings on record: single treatment with increasing concentrations of costunolide, 24 h, FIG. 2. On the procedure: as §1, §2
For data set [3], the system named is human erythrocytes. Nature of the data set: Intracellular GSH and GSSG analysis. The settings on record: costunolide 1-80 μM, 24 h, FIG. 5. On the procedure:
For single (FIG. 5) or double treatments (FIG. 7), pure RBCs (0.6% Hct) were suspended in 30 ml Ringer solution and treated with varying concentrations of costunolide (1-80 μM) or different concentrations of chelerythrine (1-10 μM) and a fixed costunolide concentration (80 μM). DMSO-treated RBCs served as negative control. After incubation, 58 μl from a 310 mM NEM stock was given to each condition, gently mixed for 1 min and then centrifuged 10 min long at 10 C and 228×g. Supernatants were removed and the cell pellets were stored at −20° C. until analyses. GSH and GSSG were measured on the clear supernatant obtained by treatment of 0.1 ml RBCs with 0.12 ml 15% (w/v) trichloroacetic acid. […] GSSG was measured at the spectrophotometer by the GSH recycling method with slight modifications (Giustarini D. et al. 2013; Nat. Protoc. 8: 1660-1669, “Analysis of GSH and GSSG after derivatization with N-ethylmaleimide”). One aliquot of RBCs ([…]) was hemolyzed by a 1:200 dilution with H2O for haemoglobin determination (Di lorio E.E. 1981; Methods Enzymol. 76: 57-72 “Preparation of derivatives of ferrous and ferric hemoglobin”). The HPLC analyses were carried out by an Agilent series 1100 instrument. The spectrophotometric analyses were performed by a Jasco V-530 instrument.

For data set [4], the target named is T1, glucose-6-phosphate dehydrogenase (G6PDH) (Homo sapiens, UniProt P11413).
T1 construct: endogenous in cells; host or cells: human erythrocytes (RBCs), hemolysate
T1 sequence (P11413 whole entry): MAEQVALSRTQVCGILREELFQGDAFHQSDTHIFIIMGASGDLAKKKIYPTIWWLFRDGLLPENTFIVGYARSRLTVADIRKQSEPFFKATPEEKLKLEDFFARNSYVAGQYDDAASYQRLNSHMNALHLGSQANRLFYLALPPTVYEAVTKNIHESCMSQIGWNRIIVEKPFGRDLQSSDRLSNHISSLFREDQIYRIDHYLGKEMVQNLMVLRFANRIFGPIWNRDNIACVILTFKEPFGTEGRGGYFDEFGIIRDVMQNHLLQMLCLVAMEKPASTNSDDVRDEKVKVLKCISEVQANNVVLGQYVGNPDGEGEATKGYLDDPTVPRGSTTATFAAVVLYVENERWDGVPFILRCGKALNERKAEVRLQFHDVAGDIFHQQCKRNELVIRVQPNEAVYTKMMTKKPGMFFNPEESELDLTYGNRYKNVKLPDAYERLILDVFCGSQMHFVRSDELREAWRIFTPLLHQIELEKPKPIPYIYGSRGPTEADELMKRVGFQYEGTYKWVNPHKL
As to the kind of experiment: Determination of G6PDH activity in erythrocyte lysates. As to conditions: costunolide treatment of erythrocytes, 24 h, FIG. 6. On the procedure: Pure RBCs (0.6% Hct) were incubated in 20 ml Ringer solution and treated with DMSO or different concentrations of costunolide. 24 hrs later, cell suspensions were centrifuged at 10° C., 228×g. Supernatants were removed and the cell pellets were stored at −80° C. until analyses. G6PDH activity was measured in lysates according to methods recommended by the International Committee for Standardization in Hematology (Di lorio E.E. 1981; l.c.). The activity was expressed in units per grams of hemoglobin (U/g Hb) (Ghashghaeinia M. et al. 2012; l.c.). RBC pellet was diluted 1:20 with distilled water. After 10 min (for GR 20 min) incubation at 37° C., the reactions were started by adding substrate or hemolysate and mixed properly. Then, 200 μL of each reaction mixture was transferred into a 96-well plate and changes in absorbance were recorded at 340 nm at 1 min intervals for 20 min at 37° C. (Infinite 200 Nanoquant, Tecan). All assays were run in triplicates and specific enzyme activity was calculated using the Lambert-Beer law. Activity =(ΔA×V/(ϵ×l×t))×f.
0.1 M Tris-HCl/0.5 mM EDTA, pH=8.0; 0.01 M MgCl2; 0.2 mM NADP^+; 20 μL of 1:20 hemolysate; 10 min incubation at 37° C.; start by addition of 0.6 mM 6PGA+0.6 mM G6P

For data set [5], the system named is human erythrocytes. As to the kind of experiment: Hemolysis measurement (hemoglobin in supernatant, 405 nm). The settings on record: costunolide treatment, 24 h, FIG. 2C. On the procedure:
After 24 hours treatment of erythrocytes (0.6% Hct) with costunolide and/or chelerythrine, hemolysis was determined. 600 μl cell suspension form each condition containing 3.6×10^6 erythrocytes centrifuged for 8 min at 420×g, 4° C., and the supernatants were harvested. As a measure of hemolysis, the hemoglobin (Hb) concentration of the supernatants was determined photometrically at 405 nm. The absorption of the supernatant of DMSO-treated erythrocytes lysed in 600 μl distilled water was defined as 100%. From this the standard curve was made by serial dilution.

`COc1ccc2c(c[n+](C)c3c4cc5c(cc4ccc23)OCO5)c1OC` [chelerythrine, 1,2-Dimethoxy-12-methyl[1,3]benzodioxolo[5,6-c]phenanthridinium] displayed a basal eryptosis rate in data set [1] (without costunolide, DMSO control 1.69%, FIG. 3A) of 1.1%.

For `C=C1C(=O)O[C@@H]2/C=C(\C)CC/C=C(\C)CC[C@@H]12` [costunolide], the cell shrinkage result in data set [2] was “increased rates of eryptosis and cell shrinkage”. Besides, in data set [3], the “GSH (reduced glutathione) level” value is “deplete both the reduced (GSH) and the oxidized (GSSG) form of glutathione in a concentration-dependent manner”; the “GSSG (oxidized glutathione) level” value is “deplete both the reduced (GSH) and the oxidized (GSSG) form of glutathione in a concentration-dependent manner”. Moreover, the G6PDH activity result in data set [4] is reported as “inhibit G6PDH activity completely”. The eryptosis rate entry in data set [1] (single treatment with increasing concentrations of costunolide, 24 h, FIG. 2) is listed as “increased rates of eryptosis”. In addition, the hemolysis entry in data set [5] was “not associated with hemolysis”.
